Reference: PMC10361003 (Journal of Enzyme Inhibition and Medicinal Chemistry, 2023)

Target: T1, aldose reductase (Homo sapiens, UniProt P15121)
Test: not given
Settings: at 0.5 IC50

Q: For `O=C1S/C(=C\c2ccc(Cl)cc2)C(=O)N1Cc1nc2ccccc2s1` [Compound 8b, (Z)-3-(benzo[d]thiazol-2-ylmethyl)-5-(4-chlorobenzylidene)thiazolidine-2,4-dione], which “effect on Km” value is on record?
A: slight reduction

Q: What about the “effect on Vmax” value of the same molecule?
A: significant reduction

Same assay, conditions: at concentrations equal to IC50 and double of IC50

Q: Which “effect on Km and Vmax” value does the source give for `O=C1S/C(=C\c2ccc(Cl)cc2)C(=O)N1Cc1nc2ccccc2s1` [Compound 8b, (Z)-3-(benzo[d]thiazol-2-ylmethyl)-5-(4-chlorobenzylidene)thiazolidine-2,4-dione] here?
A: decreased significantly

Test system: AR
Test: not given
Settings: read-out: IC50 (reported AR inhibition); Zopolrestat; cited from earlier work

Q: With `O=C(O)Cc1nn(Cc2nc3cc(C(F)(F)F)ccc3s2)c(=O)c2ccccc12` [Zopolrestat, 3,4-dihydro-4-oxo-3-[[5-(trifluoromethyl)-2-benzothiazolyl]methyl]-1-phthalazineacetic acid] as the molecule, how does the IC50 read?
A: 3.1 nM

Target: T1, aldose reductase
Test: In vitro enzyme inhibitory assay against human aldose reductase
Assay type: biochemical
Settings: AR inhibition, Epalrestat as positive control

Q: For `COc1ccc(/C=C2\SC(=O)N(Cc3nc4ccccc4s3)C2=O)cc1OC` [Compound 8h, (Z)-3-(benzo[d]thiazol-2-ylmethyl)-5-(3,4-dimethoxybenzylidene)thiazolidine-2,4-dione], which IC50 is on record?
A: 450 nM

Q: Which IC50 does the source give for `COc1ccc(/C=C2\SC(=O)N(Cc3nc4ccccc4s3)C2=O)cc1` [Compound 8f, (Z)-3-(benzo[d]thiazol-2-ylmethyl)-5-(4-methoxybenzylidene)thiazolidine-2,4-dione] here?
A: 940 nM

Q: For `Cc1ccc(/C=C2\SC(=O)N(CC(=O)c3ccc([N+](=O)[O-])cc3)C2=O)cc1` [Compound 5e, (Z)-5-(4-methylbenzylidene)-3-(2-(4-nitrophenyl)-2-oxoethyl)thiazolidine-2,4-dione], which IC50 is on record?
A: 550 nM

Q: With `COc1cc(/C=C2\SC(=O)N(CC(=O)c3ccc([N+](=O)[O-])cc3)C2=O)cc(OC)c1OC` [Compound 5g, (Z)-3-(2-(4-nitrophenyl)-2-oxoethyl)-5-(3,4,5-trimethoxybenzylidene)thiazolidine-2,4-dione] as the molecule, how does the IC50 read?
A: 720 nM

Q: For `O=C(CN1C(=O)S/C(=C\c2ccc(F)cc2)C1=O)c1ccc([N+](=O)[O-])cc1` [Compound 5d, (Z)-5-(4-fluorobenzylidene)-3-(2-(4-nitrophenyl)-2-oxoethyl)thiazolidine-2,4-dione], which IC50 is on record?
A: 570 nM

Q: With `O=C1S/C(=C\c2ccc(F)cc2)C(=O)N1Cc1nc2ccccc2s1` [Compound 8d, (Z)-3-(benzo[d]thiazol-2-ylmethyl)-5-(4-fluorobenzylidene)thiazolidine-2,4-dione] as the molecule, how does the IC50 read?
A: 330 nM

Q: Which IC50 does the source give for `O=C1S/C(=C\c2ccc(Cl)cc2)C(=O)N1Cc1nc2ccccc2s1` [Compound 8b, (Z)-3-(benzo[d]thiazol-2-ylmethyl)-5-(4-chlorobenzylidene)thiazolidine-2,4-dione] here?
A: 160 nM

Q: For `COc1cc(/C=C2\SC(=O)N(Cc3nc4ccccc4s3)C2=O)cc(OC)c1OC` [Compound 8g, (Z)-3-(benzo[d]thiazol-2-ylmethyl)-5-(3,4,5-trimethoxybenzylidene)thiazolidine-2,4-dione], which IC50 is on record?
A: 270 nM

Q: For `O=C(CN1C(=O)S/C(=C\c2ccc([N+](=O)[O-])cc2)C1=O)c1ccc([N+](=O)[O-])cc1` [Compound 5a, (Z)-5-(4-nitrobenzylidene)-3-(2-(4-nitrophenyl)-2-oxoethyl)thiazolidine-2,4-dione], which IC50 is on record?
A: 220 nM

Q: With `Cc1ccc(/C=C2\SC(=O)N(Cc3nc4ccccc4s3)C2=O)cc1` [Compound 8e, (Z)-3-(benzo[d]thiazol-2-ylmethyl)-5-(4-methylbenzylidene)thiazolidine-2,4-dione] as the molecule, how does the IC50 read?
A: 290 nM

Q: With `O=C1S/C(=C\c2ccc(Br)cc2)C(=O)N1Cc1nc2ccccc2s1` [Compound 8c, (Z)-3-(benzo[d]thiazol-2-ylmethyl)-5-(4-bromobenzylidene)thiazolidine-2,4-dione] as the molecule, how does the IC50 read?
A: 210 nM

Q: With `O=C(CN1C(=O)S/C(=C\c2ccc(Cl)cc2)C1=O)c1ccc([N+](=O)[O-])cc1` [Compound 5b, (Z)-5-(4-chlorobenzylidene)-3-(2-(4-nitrophenyl)-2-oxoethyl)thiazolidine-2,4-dione] as the molecule, how does the IC50 read?
A: 460 nM

Q: Which IC50 does the source give for `COc1ccc(/C=C2\SC(=O)N(CC(=O)c3ccc([N+](=O)[O-])cc3)C2=O)cc1` [Compound 5f, (Z)-5-(4-methoxybenzylidene)-3-(2-(4-nitrophenyl)-2-oxoethyl)thiazolidine-2,4-dione] here?
A: 280 nM

Q: With `O=C(CN1C(=O)S/C(=C\c2cccc([N+](=O)[O-])c2)C1=O)c1ccc([N+](=O)[O-])cc1` [Compound 5h, (Z)-5-(3-nitrobenzylidene)-3-(2-(4-nitrophenyl)-2-oxoethyl)thiazolidine-2,4-dione] as the molecule, how does the IC50 read?
A: 510 nM

Q: Which IC50 does the source give for `O=C(CN1C(=O)S/C(=C\c2ccc(Br)cc2)C1=O)c1ccc([N+](=O)[O-])cc1` [Compound 5c, (Z)-5-(4-bromobenzylidene)-3-(2-(4-nitrophenyl)-2-oxoethyl)thiazolidine-2,4-dione] here?
A: 490 nM

Q: With `O=C1S/C(=C\c2ccc([N+](=O)[O-])cc2)C(=O)N1Cc1nc2ccccc2s1` [Compound 8a, (Z)-3-(benzo[d]thiazol-2-ylmethyl)-5-(4-nitrobenzylidene)thiazolidine-2,4-dione] as the molecule, how does the IC50 read?
A: 1980 nM

Q: For `O=C(CN1C(=O)S/C(=C\c2cccc(Br)c2)C1=O)c1ccc([N+](=O)[O-])cc1` [Compound 5k, (Z)-5-(3-bromobenzylidene)-3-(2-(4-nitrophenyl)-2-oxoethyl)thiazolidine-2,4-dione], which IC50 is on record?
A: 410 nM
